pEC50: −log10 of the molar value. Converted amounts (≈) assume the structure as drawn.

The CC50 is the concentration giving 50% cytotoxicity. High values mean better tolerance by the cells, low ones harm at low concentration. One may read the pEC50 as the EC50 on a negative log10 scale, so that one unit is a factor of ten. By MIC is commonly meant the least concentration at which growth counts as inhibited. Low readings indicate a more susceptible organism, high ones a less susceptible organism. A word on the melting point: it is the temperature of the solid-liquid transition.

Data set [1] can be described thus: Cytotoxicity against mock-infected MT-4 cells (MTT). Format: cell-based, human. Particulars: human, concentration reducing viability of mock-infected MT-4 cells by 50%. In short, it runs like this:
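Uninfected MT-4 cells (HTLV-1-transformed human CD4+ T cells) seeded at 1 × 10^5 cells/mL in RPMI-1640 with 10% FBS and grown with serially diluted compounds at 37 °C, 5% CO2. Viability read by MTT after 96 h.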

A further data set has as its system HIV-1 IIIB. Description: Anti-HIV-1 activity: protection of MT-4 cells from virus-induced cytopathogenicity (MTT). Format: cell-based, Human Immunodeficiency Virus type-1. As to conditions: Human immunodeficiency virus 1, IIIB, MT4, 96 h; 50% protection of MT-4 cells from HIV-1 induced cytopathogenicity, MTT, 4-day incubation; read-out: HIV-1IIIB EC50. The gist of the method:
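MT-4 cells (1 × 10^4/well) infected with HIV-1 IIIB at m.o.i. 0.01 (100 CCID50) in presence of serial compound dilutions. Protection from virus-induced cytopathogenicity measured by MTT viability after 4 days at 37 °C.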
A general note: Cytopathic effects are the visible damage that an infection or toxin causes in cultured cells.

For the next data set, the system named is B. cereus ATCC 11778. Description: MIC, twofold serial microdilution. Format: cell-based. As to conditions: Bacillus cereus, ATCC11778; standard strain, 18 h, 35 °C. How it is done:
(§1) The antimicrobial activity of the compounds was tested on Gram-positive bacteria (Staphylococcus aureus NCTC 4163, Staphylococcus aureus ATCC 25923, Staphylococcus aureus ATCC 6538, Staphylococcus aureus ATCC 29213, Staphylococcus epidermidis ATCC 12228, Staphylococcus epidermidis ATCC 35984, Enterococcus faecalis ATCC 29212, Bacillus subtilis ATCC 6633, Bacillus cereus ATCC 11778, Micrococcus luteus ATCC 9341, Micrococcus luteus ATCC 10240); Gram-negative rods (Escherichia coli ATCC 10538, Escherichia coli ATCC 25922, Escherichia coli NCTC 8196, Proteus vulgaris NCTC 4635, Pseudomonas aeruginosa ATCC 15442, Pseudomonas aeruginosa NCTC 6749, Pseudomonas aeruginosa ATCC 27863, Bordetella bronchiseptica ATCC 4617) and yeasts (Candida albicans ATCC 10231, Candida albicans ATCC 90028, Candida parapsilosis ATCC 22019). Other microorganisms used were obtained from the collection of the Department of Pharmaceutical Microbiology, Medical University of Warsaw, Poland.
(§2) Antibacterial activity was examined by the disc-diffusion method under standard conditions using Mueller-Hinton II agar medium (Becton Dickinson) according to CLSI (previously NCCLS) guidelines. Antifungal activities were assessed using Mueller-Hinton agar + 2% glucose and 0.5 µg/mL Methylene Blue Dye Medium. Sterile filter paper discs (9 mm diameter, Whatman No 3 chromatography paper) were dripped with tested compound solutions (in DMSO) to load 400 μg of a given compound per disc. Dry discs were placed on the surface of appropriate agar medium. The results (diameter of the growth inhibition zone) were read after 18 h of incubation at 35 °C. Minimal Inhibitory Concentration (MIC) was tested by the twofold serial microdilution method (in 96-well microtiter plates) using Mueller-Hinton Broth medium (Beckton Dickinson) for bacteria or RPMI-1640 medium for Candida species according to CLSI guidelines. The stock solution of tested agent was prepared in DMSO and diluted in sterile water. Concentrations of tested agents ranged from 0.125 to 512 µg/mL. The final inoculum of all studied microorganisms was 10^5 CFU/ mL^−1 (colony forming units per mL). Minimal inhibitory concentrations (the lowest concentration of a tested agent that prevents visible growth of a microorganism) were read after 18 h (bacteria) or 24 h (yeasts) of incubation at 35 °C.
A general note: Broth dilution looks for growth in wells or tubes with falling amounts of substance.

A further data set relates to B. subtilis ATCC 6633. Description: MIC, twofold serial microdilution. It counts as cell-based. As to conditions: Bacillus subtilis, ATCC6633; standard strain, 18 h, 35 °C. How it is done: as §1, §2
A further data set deals with M. luteus ATCC 10240. Description: MIC, twofold serial microdilution. Format: cell-based. Particulars: Micrococcus luteus, ATCC10240; standard strain, 18 h, 35 °C. How it is done:
as §1, §2

The subject of another data set is M. luteus ATCC 9341. Description: MIC, twofold serial microdilution. Format: cell-based. Particulars: Micrococcus luteus, ATCC9341; standard strain, 18 h, 35 °C. How it is done: as §1, §2
The subject of the next data set is S. aureus ATCC 25923. As to the kind of experiment: MIC, twofold serial microdilution. As to conditions: Staphylococcus aureus, ATCC25923; standard strain, 18 h, 35 °C. It counts as cell-based. How it is done: as §1, §2
Another data set relates to S. aureus ATCC 29213. As to the kind of experiment: MIC, twofold serial microdilution. It counts as cell-based. Particulars: Staphylococcus aureus, ATCC29213; standard strain, 18 h, 35 °C. The method, then: as §1, §2
For another data set, the system named is S. aureus ATCC 6538. Description: MIC, twofold serial microdilution. Format: cell-based. Particulars: Staphylococcus aureus, ATCC6538; standard strain, 18 h, 35 °C. The method, then: as §1, §2
In the next data set the test system is S. aureus NCTC 4163. As to the kind of experiment: MIC, twofold serial microdilution. As to conditions: Staphylococcus aureus, NCTC4163; standard strain, 18 h, 35 °C. It counts as cell-based. The method, then: as §1, §2
In data set [2] the test system is S. epidermidis ATCC 12228. As to the kind of experiment: MIC, twofold serial microdilution. Format: cell-based. As to conditions: Staphylococcus epidermidis, ATCC12228; standard strain, 18 h, 35 °C. How it is done: as §1, §2
Data set [3] deals with S. epidermidis ATCC 35984. As to the kind of experiment: MIC, twofold serial microdilution. It counts as cell-based. Particulars: Staphylococcus epidermidis, ATCC35984; standard strain, 18 h, 35 °C. How it is done: as §1, §2
The subject of data set [4] is S. epidermidis MRSE 403/11. As to the kind of experiment: MIC, hospital methicillin-resistant strain. Format: cell-based. As to conditions: Staphylococcus epidermidis. The method, then: as §1, §2
The test system of data set [5] is S. epidermidis MRSE 404/11. As to the kind of experiment: MIC, hospital methicillin-resistant strain. Format: cell-based. Particulars: Staphylococcus epidermidis. The method, then: as §1, §2
The test system of data set [6] is S. epidermidis MRSE 405/11. As to the kind of experiment: MIC, hospital methicillin-resistant strain. Format: cell-based. As to conditions: Staphylococcus epidermidis. How it is done:
as §1, §2

Data set [7] concerns S. epidermidis MRSE 406/11. Description: MIC, hospital methicillin-resistant strain. Format: cell-based. As to conditions: Staphylococcus epidermidis. How it is done: as §1, §2
Data set [8] concerns S. epidermidis MRSE 407/11. Description: MIC, hospital methicillin-resistant strain. As to conditions: Staphylococcus epidermidis. It counts as cell-based. How it is done: as §1, §2
The test system of data set [9] is S. epidermidis MRSE 409/11. Description: MIC, hospital methicillin-resistant strain. Format: cell-based. Particulars: Staphylococcus epidermidis. How it is done:
as §1, §2

Data set [10] concerns S. epidermidis MRSE 411/11. As to the kind of experiment: MIC, hospital methicillin-resistant strain. As to conditions: Staphylococcus epidermidis. Format: cell-based. How it is done: as §1, §2
For data set [11], the system named is S. epidermidis MRSE 412/11. As to the kind of experiment: MIC, hospital methicillin-resistant strain. It counts as cell-based. As to conditions: Staphylococcus epidermidis. The method, then: as §1, §2
Data set [12] deals with S. epidermidis MRSE 413/11. Description: MIC, hospital methicillin-resistant strain. Format: cell-based. Particulars: Staphylococcus epidermidis. How it is done: as §1, §2
The test system of data set [13] is S. epidermidis MRSE 422/11. Description: MIC, hospital methicillin-resistant strain. It counts as cell-based. Particulars: Staphylococcus epidermidis. How it is done: as §1, §2
Another data set deals with standard strains. Description: Antimicrobial activity against set of bacterial and fungal strains. Format: cell-based. As to conditions: range over standard strains. How it is done:
as §1
as §2, with “The stock solution of tested agent was prepared in DMSO and diluted in sterile water. Concentrations of tested agents ranged from 0.125 to 512 µg/mL. The final inoculum of all studied microorganisms was 10^5 CFU/ mL^−1 (colony forming units per mL).” left out

On to `Cc1ccc(NC(=S)Nc2ccc(Cl)c([N+](=O)[O-])c2)cc1` [Compound 20, 1-(4-chloro-3-nitrophenyl)-3-(4-methylphenyl)thiourea], for which the melting point lay in the range of 156 to 158 °C. This compound displayed a CC50 at 96 h in [1] of 14.6 µM. The pEC50 in the data set with HIV-1 IIIB is less than 4.84. The compound further showed an MIC against B. cereus ATCC 11778 of 4 µg/mL (≈ 12.4 µM). Also, inhibition of growth in the data set on B. subtilis ATCC 6633 (MIC) required 4 µg/mL (≈ 12.4 µM). The compound further displayed an MIC against M. luteus ATCC 10240 of 4 µg/mL (≈ 12.4 µM). Also, inhibition of growth in the data set with M. luteus ATCC 9341 (MIC) required 4 µg/mL (≈ 12.4 µM). In the data set with S. aureus ATCC 25923, the lowest concentration to inhibit growth (MIC) was 2 µg/mL (≈ 6.22 µM). This compound registered an MIC in the data set on S. aureus ATCC 29213 of 2 µg/mL (≈ 6.22 µM). The compound also yielded an MIC against S. aureus ATCC 6538 of 4 µg/mL (≈ 12.4 µM). In the data set on S. aureus NCTC 4163, this compound returned an MIC of 2 µg/mL (≈ 6.22 µM). In data set [2], this compound came in with an MIC of 4 µg/mL (≈ 12.4 µM). The compound further showed an MIC in data set [3] of 4 µg/mL (≈ 12.4 µM). Further, in data set [4], the MIC was 16 µg/mL (≈ 49.7 µM). This compound showed an MIC in data set [5] of 16 µg/mL (≈ 49.7 µM). Besides, in data set [6], the MIC amounted to 16 µg/mL (≈ 49.7 µM). In addition, the MIC in data set [7] turned out to be 16 µg/mL (≈ 49.7 µM). In [8], this compound returned an MIC of 16 µg/mL (≈ 49.7 µM). Further, the MIC in data set [9] came out at 16 µg/mL (≈ 49.7 µM). This compound registered an MIC in data set [10] of 16 µg/mL (≈ 49.7 µM). For the same compound, the MIC in [11] stood at 32 µg/mL (≈ 99.4 µM). The MIC in [12] amounted to 16 µg/mL (≈ 49.7 µM). The compound further came in with an MIC in data set [13] of 32 µg/mL (≈ 99.4 µM). In the data set with standard strains, this compound returned an MIC of 2 to 4 µg/mL (≈ 6.22 to 12.4 µM).

Take `CCCCc1ccc(NC(=S)Nc2ccc(Cl)c([N+](=O)[O-])c2)c(C)c1` [Compound 22, 1-(4-butyl-2-methylphenyl)-3-(4-chloro-3-nitrophenyl)thiourea]: the melting point was 67 to 69 °C. The same compound had a CC50 at 96 h in [1] of 18.7 µM. In addition, the negative logarithm of the EC50 (pEC50) in the data set on HIV-1 IIIB was less than 4.73. Moreover, the MIC against B. cereus ATCC 11778 came out at 4 µg/mL (≈ 10.6 µM). The same compound yielded an MIC against B. subtilis ATCC 6633 of 4 µg/mL (≈ 10.6 µM). Further, in the data set on M. luteus ATCC 10240, the MIC turned out to be 2 µg/mL (≈ 5.29 µM). Moreover, the MIC with M. luteus ATCC 9341 was determined as 4 µg/mL (≈ 10.6 µM). Moreover, the MIC against S. aureus ATCC 25923 was 2 µg/mL (≈ 5.29 µM). The same compound showed an MIC in the data set on S. aureus ATCC 29213 of 2 µg/mL (≈ 5.29 µM). The same compound yielded an MIC against S. aureus ATCC 6538 of 2 µg/mL (≈ 5.29 µM). The compound further yielded an MIC with S. aureus NCTC 4163 of 4 µg/mL (≈ 10.6 µM). Moreover, the MIC in data set [2] was 4 µg/mL (≈ 10.6 µM). Moreover, the MIC in [3] amounted to 4 µg/mL (≈ 10.6 µM). In data set [4], this compound returned an MIC of 4 µg/mL (≈ 10.6 µM). In data set [5], this compound had an MIC of 8 µg/mL (≈ 21.2 µM). The compound also returned an MIC in data set [6] of 4 µg/mL (≈ 10.6 µM). The compound further had an MIC in data set [7] of 8 µg/mL (≈ 21.2 µM). Further, it took 4 µg/mL (≈ 10.6 µM) to inhibit growth in data set [8] (MIC). Further, the MIC in [9] is 4 µg/mL (≈ 10.6 µM). This compound also yielded an MIC in data set [10] of 4 µg/mL (≈ 10.6 µM). The compound also showed a minimum inhibitory concentration (MIC) in data set [11] of 8 µg/mL (≈ 21.2 µM). The compound further returned an MIC in [12] of 8 µg/mL (≈ 21.2 µM). The MIC in data set [13] was 8 µg/mL (≈ 21.2 µM). Moreover, in the data set with standard strains, the MIC fell in the range of 2 to 4 µg/mL (≈ 5.29 to 10.6 µM).

(Values after PMC6222614, “Disubstituted 4-Chloro-3-nitrophenylthiourea Derivatives: Antimicrobial and Cytotoxic Studies” (Molecules : A Journal of Synthetic Chemistry and Natural …, 2018).)
